Results: patent US6495559B2, “NPY Y5 receptor antagonists” (Merck & Co., Inc., priority 1998, dated 2002)

Compound | melting point
CS(=O)(=O)N1CC2(CCN(C(=O)Nc3ccc(-c4ccncc4)cc3)CC2)c2ccccc21 | 272 to 274 °C
CCc1cc(-c2ccc(NC(=O)N3CCC4(CC3)CN(S(C)(=O)=O)c3ccccc34)cc2)ccn1.Cl | 220 to 222 °C
CS(=O)(=O)N1CC2(CCN(C(=O)Nc3ccc(C(=O)c4ccccc4)cc3)CC2)c2ccccc21.Cl | 222 to 225 °C
CS(=O)(=O)N1CC2(CCN(C(=O)Nc3cc(-c4ccccc4)no3)CC2)c2ccccc21 | 235 to 237 °C
CCS(=O)(=O)N1CC2(CCN(C(=O)Nc3cn(-c4ccccc4)cn3)CC2)c2ccccc21.Cl | 139 to 140 °C
CCS(=O)(=O)N1CC2(CCN(C(=O)Nc3cn(-c4ccccc4)cn3)CC2)c2cc(F)ccc21.Cl | 140 to 141 °C
CS(=O)(=O)N1CC2(CCN(C(=O)Nc3cnc(-c4cccc(F)c4)cn3)CC2)c2ccccc21 [Compound 101, N-[5-(3-fluorophenyl)-2-pyrazinyl]-1-methylsulfonylspiro[indoline-3,4′-piperidine]-1′-carboxamide] | 203 to 205 °C
COc1ccccc1-c1cnc(NC(=O)N2CCC3(CC2)CN(S(C)(=O)=O)c2ccccc23)cn1 [Compound 102, N-[5-(2-methoxyphenyl)-2-pyrazinyl]-1-methylsulfonylspiro[indoline-3,4′-piperidine]-1′-carboxamide] | 186 to 188 °C
CS(=O)(=O)N1CC2(CCN(C(=O)Nc3cnc(-c4ccccc4Cl)cn3)CC2)c2ccccc21 [Compound 103, N-[5-(2-chlorophenyl)-2-pyrazinyl]-1-methylsulfonylspiro[indoline-3,4′-piperidine]-1′-carboxamide] | 197 to 199 °C
CS(=O)(=O)N1CC2(CCN(C(=O)Nc3cnc(-c4ccccn4)cn3)CC2)c2ccccc21 [Compound 104, 1-methylsulfonyl-N-[5-(2-pyridyl)-2-pyrazinyl]spiro[indoline-3,4′-piperidine]-1′-carboxamide] | 234 to 235 °C
C=CCc1cnc(NC(=O)N2CCC3(CC2)CN(S(C)(=O)=O)c2ccccc23)cn1 [Compound 105, 1-methylsulfonyl-N-[5-(2-propenyl)-2-pyrazinyl]spiro[indoline-3,4′-piperidine]-1′-carboxamide] | 180.5 to 182.7 °C
CCc1nc(-c2ccc(NC(=O)N3CCC4(CC3)CN(S(C)(=O)=O)c3ccccc34)cc2)cs1 [Compound 107, N-[4-(2-ethyl-4-thiazolyl)phenyl]-1-methylsulfonylspiro[indoline-3,4′-piperidine]-1′-carboxamide] | 242 to 242.5 °C
CS(=O)(=O)N1CC2(CCN(C(=O)Nc3ccc(-c4nccs4)cc3)CC2)c2ccccc21 [Compound 111, 1-methylsulfonyl-N-[4-(2-thiazolyl)phenyl]spiro[indoline-3,4′-piperidine]-1′-carboxamide] | 143.2 to 147.4 °C
CS(=O)(=O)N1CC2(CCN(C(=O)Nc3ccc(-c4ccccc4)cn3)CC2)c2ccccc21 [Compound 112, 1-methylsulfonyl-N-(5-phenyl-2-pyridyl)spiro[indoline-3,4′-piperidine]-1′-carboxamide] | 214 °C
CS(=O)(=O)N1CC2(CCN(C(=O)Nc3cnc(-c4ccccc4)nc3)CC2)c2ccccc21 [Compound 113, 1-methylsulfonyl-N-(2-phenyl-5-pyrimidinyl)spiro[indoline-3,4′-piperidine]-1′-carboxamide] | 251 to 253 °C
CS(=O)(=O)N1CC2(CCN(C(=O)Nc3ccc(-c4ccccc4)nc3)CC2)c2ccccc21 [Compound 114, 1-methylsulfonyl-N-(2-phenyl-5-pyridyl)spiro[indoline-3,4′-piperidine]-1′-carboxamide] | 224 °C
CS(=O)(=O)N1CC2(CCN(C(=O)Nc3ncc(-c4ccccc4)cn3)CC2)c2ccccc21 [Compound 115, 1-methylsulfonyl-N-(5-phenyl-2-pyrimidinyl)spiro[indoline-3,4′-piperidine]-1′-carboxamide] | 122 to 123 °C
CS(=O)(=O)N1CC2(CCN(C(=O)Nc3ccc(N4CCCC4)nc3)CC2)c2ccccc21 [Compound 116, 1-methylsulfonyl-N-[2-(1-pyrrolidinyl)-5-pyridyl]spiro[indoline-3,4′-piperidine]-1′-carboxamide] | 252 to 254 °C
CS(=O)(=O)N1CC2(CCN(C(=O)Nc3nc(-c4ccccc4)co3)CC2)c2ccccc21 [Compound 119, 1-methylsulfonyl-N-(4-phenyloxazol-2-yl)spiro[indoline-3,4′-piperidine]-1′-carboxamide] | 189 to 192 °C

Compound | melting point
CS(=O)(=O)N1CC2(CCN(C(=O)Nc3nsc(-c4ccccc4)n3)CC2)c2ccccc21 [Compound 123, 1-methylsulfonyl-N-(5-phenyl-1,2,4-thiadiazol-3-yl)spiro[indoline-3,4′-piperidine]-1′-carboxamide] | 133 to 136 °C
COc1cccc(-n2cnc(NC(=O)N3CCC4(CC3)CN(S(C)(=O)=O)c3ccccc34)c2)c1 [Compound 126, N-[1-(3-methoxyphenyl)imidazol-4-yl]-1-methylsulfonylspiro[indoline-3,4′-piperidine]-1′-carboxamide] | 216 to 218 °C
CS(=O)(=O)N1CC2(CCN(C(=O)Nc3cn(-c4cccc(Cl)c4)cn3)CC2)c2ccccc21 [Compound 127, N-[1-(3-chlorophenyl)imidazol-4-yl]-1-methylsulfonylspiro[indoline-3,4′-piperidine]-1′-carboxamide] | 232 to 234 °C
COc1cccc2oc(NC(=O)N3CCC4(CC3)CN(S(C)(=O)=O)c3ccccc34)nc12 [Compound 128, N-(4-methoxybenzoxazol-2-yl)-1-methylsulfonylspiro[indoline-3,4′-piperidine]-1′-carboxamide] | 195 to 199 °C
CS(=O)(=O)N1CC2(CCN(C(=O)Nc3nc4cc(F)ccc4s3)CC2)c2ccccc21 [Compound 129, N-(5-fluorobenzothiazol-2-yl)-1-methylsulfonylspiro[indoline-3,4′-piperidine]-1′-carboxamide] | 243 to 244 °C
Cc1ccc2nc(NC(=O)N3CCC4(CC3)CN(S(C)(=O)=O)c3ccccc34)cnc2c1 [Compound 130, 1-methylsulfonyl-N-(6-methylquinoxalin-2-yl)spiro[indoline-3,4′-piperidine]-1′-carboxamide] | 224 to 225 °C
Cc1cccc2ccc(NC(=O)N3CCC4(CC3)CN(S(C)(=O)=O)c3ccccc34)nc12 [Compound 131, 1-methylsulfonyl-N-(8-methylquinolin-2-yl)spiro[indoline-3,4′-piperidine]-1′-carboxamide] | 219 to 220 °C
CS(=O)(=O)N1CC2(CCN(C(=O)Nc3cnc4ccc(Cl)cc4n3)CC2)c2ccccc21 [Compound 132, N-(7-chloroquinoxalin-2-yl)-1-methylsulfonylspiro[indoline-3,4′-piperidine]-1′-carboxamide] | 213 to 214 °C
COc1ccc2oc(NC(=O)N3CCC4(CC3)CN(S(C)(=O)=O)c3ccccc34)nc2c1 [Compound 134, N-(5-methoxybenzoxazol-2-yl)-1-methylsulfonylspiro[indoline-3,4′-piperidine]-1′-carboxamide] | 194 to 196 °C
CS(=O)(=O)N1CC2(CCN(C(=O)Nc3cc4cc(Cl)ccc4[nH]3)CC2)c2ccccc21 [Compound 135, N-(5-chlorobenzoazol-2-yl)-1-methylsulfonylspiro[indoline-3,4′-piperidine]-1′-carboxamide] | 172 to 176 °C
Cc1cccc2sc(NC(=O)N3CCC4(CC3)CN(S(C)(=O)=O)c3ccccc34)nc12 [Compound 137, N-(4-methylbenzothiazol-2-yl)-1-methylsulfonylspiro[indoline-3,4′-piperidine]-1′-carboxamide] | 182 to 183 °C
CS(=O)(=O)N1CC2(CCN(C(=O)Nc3cnc(-c4ccccc4)cn3)CC2)c2ccc(F)cc21 [Compound 139, 6-fluoro-1-methylsulfonyl-N-(5-phenyl-2-pyrazinyl)spiro[indoline-3,4′-piperidine]-1′-carboxamide] | 234 to 237 °C
CCS(=O)(=O)N1CC2(CCN(C(=O)Nc3cc(-c4ccc(Cl)cc4)on3)CC2)c2ccccc21 [Compound 143, N-[5-(4-chlorophenyl)isoxazol-3-yl]-1-ethylsulfonylspiro[indoline-3,4′-piperidine]-1′-carboxamide] | 178.3 to 178.5 °C
CS(=O)(=O)N1CC2(CCN(C(=O)Nc3cnc(-c4nncs4)cn3)CC2)c2ccccc21 [Compound 146, 1-methylsulfonyl-N-[5-(1,3,4-thiadiazol-2-yl)-2-pyrazinyl]spiro[indoline-3,4′-piperidine]-1′-carboxamide] | 247 to 249 °C
CS(=O)(=O)N1CC2(CCN(C(=O)Nc3cnc(-c4ncns4)cn3)CC2)c2ccccc21 [Compound 147, 1-methylsulfonyl-N-[5-(1,2,4-thiadiazol-5-yl)-2-pyrazinyl]spiro[indoline-3,4′-piperidine]-1′-carboxamide] | 234 to 238 °C
CS(=O)(=O)N1CC2(CCN(C(=O)Nc3cnc(-c4nncs4)cn3)CC2)c2ccc(F)cc21 [Compound 148, 6-fluoro-1-methylsulfonyl-N-[5-(1,3,4-thiadiazol-2-yl)-2-pyrazinyl]spiro[indoline-3,4′-piperidine]-1′-carboxamide] | 242 to 243 °C
CS(=O)(=O)N1CC2(CCN(C(=O)Nc3cnc(-c4ncns4)cn3)CC2)c2ccc(F)cc21 [Compound 149, 6-fluoro-1-methylsulfonyl-N-[5-(1,2,4-thiadiazol-5-yl)-2-pyrazinyl]spiro[indoline-3,4′-piperidine]-1′-carboxamide] | 237 to 239 °C
CS(=O)(=O)N1CC2(CCN(C(=O)Nc3cnc(-c4nncs4)cn3)CC2)c2cc(F)ccc21 [Compound 150, 5-fluoro-1-methylsulfonyl-N-[5-(1,3,4-thiadiazol-2-yl)-2-pyrazinyl]spiro[indoline-3,4′-piperidine]-1′-carboxamide] | 262 to 266 °C
CS(=O)(=O)N1CC2(CCN(C(=O)Nc3cnc(-c4ncns4)cn3)CC2)c2cc(F)ccc21 [Compound 151, 5-fluoro-1-methylsulfonyl-N-[5-(1,2,4-thiadiazol-5-yl)-2-pyrazinyl]spiro[indoline-3,4′-piperidine]-1′-carboxamide] | 239 to 240 °C
